Data taken from ChEMBL document CHEMBL1201862, “PubChem BioAssay data set” (2004).
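Following 48 hours of exposure in 96-well plates, responses at five concentrations were used to interpolate endpoints linearly. GI50: concentration for 50% inhibition of growth.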 Activity calls are given as the source filed them. Cut-off read from the data, not from the text of the source: active = GI50 up to about 1.1 µM and inactive = higher.

Columns and labels:
Experiment in all cases: growth of human tumour cells (NCI), 48 h
U-251 = tested on: U-251
SF-539 = tested on: SF-539
DU-145 = tested on: DU-145
A549 = tested on: A549
HCT-116 = tested on: HCT-116
M14 = tested on: M14
Malme-3M = tested on: Malme-3M
K562 = tested on: K562
TK-10 = tested on: TK-10
CAKI-1 = tested on: CAKI-1
ACHN = tested on: ACHN
IGROV-1 = tested on: IGROV-1
RXF 393 = tested on: RXF 393
COLO 205 = tested on: COLO 205
T47D = tested on: T47D
OVCAR-8 = tested on: OVCAR-8
SK-OV-3 = tested on: SK-OV-3
MDA-N = tested on: MDA-N

SMILES | GI50 (U-251) | GI50 (SF-539) | GI50 (DU-145) | GI50 (A549) | GI50 (HCT-116) | GI50 (M14) | GI50 (Malme-3M) | GI50 (K562) | GI50 (TK-10) | GI50 (CAKI-1) | GI50 (ACHN) | GI50 (IGROV-1) | GI50 (RXF 393) | GI50 (COLO 205) | GI50 (T47D) | GI50 (OVCAR-8) | GI50 (SK-OV-3) | GI50 (MDA-N)
CCN(CC)CC[S+]([O-])c1c2cc(OC)ccc2nc2ccc(OC)cc12 (stereo not given) | 20 µM (inactive) | 2.32 µM (inactive) | 1.91 µM (inactive) | 24.9 µM (inactive) | 2.19 µM (inactive) | 9.55 µM (inactive) | 0.865 µM (active) | 5.78 µM (inactive) | 5.56 µM (inactive) | 9.75 µM (inactive) | 2.38 µM (inactive) | 2.54 µM (inactive) | 7.33 µM (inactive) | 1.88 µM (inactive) | 1.95 µM (inactive) | 3.83 µM (inactive) | 21.6 µM (inactive) | 
CCOC(=O)c1c(OCC)[nH]c(=O)c(C(c2ccc(F)cc2)c2c(O)c(C(=O)OCC)c(OCC)[nH]c2=O)c1O | 15.2 µM (inactive) | 10 µM (inactive) | 11.1 µM (inactive) | 14.8 µM (inactive) | 25.7 µM (inactive) | 24.6 µM (inactive) | 8.32 µM (inactive) | 16.5 µM (inactive) | 25.2 µM (inactive) | 18.9 µM (inactive) | 16.3 µM (inactive) | 14.9 µM (inactive) | 4.28 µM (inactive) | 25.9 µM (inactive) | 4.44 µM (inactive) | 14 µM (inactive) |  | 
O=C(Cn1c2c(c3ccccc31)CCCC2)N1CCOCC1 |  | > 100 µM (inactive) |  | > 100 µM (inactive) | > 100 µM (inactive) | > 100 µM (inactive) | > 100 µM (inactive) | > 100 µM (inactive) | > 100 µM (inactive) | > 100 µM (inactive) | > 100 µM (inactive) | > 100 µM (inactive) |  | > 100 µM (inactive) |  | > 100 µM (inactive) | > 100 µM (inactive) | > 100 µM (inactive)
Cc1ccc(N2CCN(CCC(=O)O)CC2)cc1 | > 100 µM (inactive) | > 100 µM (inactive) | > 100 µM (inactive) | > 100 µM (inactive) | > 100 µM (inactive) | > 100 µM (inactive) | > 100 µM (inactive) | 2.94 µM (inactive) | > 100 µM (inactive) | > 100 µM (inactive) | > 100 µM (inactive) | > 100 µM (inactive) | > 100 µM (inactive) | > 100 µM (inactive) | > 100 µM (inactive) | > 100 µM (inactive) | > 100 µM (inactive) | 
O=C(OCC1CC(C2(O)CCCCC2)C(=O)O1)c1ccccc1 (stereo not given) | > 100 µM (inactive) | > 100 µM (inactive) | > 100 µM (inactive) | > 100 µM (inactive) | > 100 µM (inactive) | > 100 µM (inactive) | > 100 µM (inactive) | > 100 µM (inactive) | > 100 µM (inactive) | > 100 µM (inactive) | > 100 µM (inactive) | > 100 µM (inactive) | > 100 µM (inactive) | > 100 µM (inactive) |  | > 100 µM (inactive) | > 100 µM (inactive) | 
O=C1Cc2c([nH]c3ccccc23)C2(CC3CCCCN13)OCCO2 (stereo not given) | > 100 µM (inactive) |  | > 100 µM (inactive) | > 100 µM (inactive) | > 100 µM (inactive) | > 100 µM (inactive) | 62.2 µM (inactive) |  | > 100 µM (inactive) | > 100 µM (inactive) | > 100 µM (inactive) | 45.2 µM (inactive) | 29.2 µM (inactive) | > 100 µM (inactive) | > 100 µM (inactive) | > 100 µM (inactive) | > 100 µM (inactive) | 
COc1cc2c(c(OC)c1OC)C(=O)[C@H]1OC(=O)N[C@@H]21 | > 100 µM (inactive) | > 100 µM (inactive) | > 100 µM (inactive) | > 100 µM (inactive) | > 100 µM (inactive) | > 100 µM (inactive) |  | > 100 µM (inactive) | > 100 µM (inactive) | > 100 µM (inactive) | > 100 µM (inactive) |  | > 100 µM (inactive) | > 100 µM (inactive) | > 100 µM (inactive) | > 100 µM (inactive) | > 100 µM (inactive) | 
